Experimental data taken from article PMC13408504, “Design, structure-based optimization and antiviral evaluation of potent inhibitors for the macrodomain Mac1 of SARS-CoV-2” (Nature Communications, 2026).
Values joined by “and” are separate entries in the source; they are usually repeats but may differ in a detail not shown here. Equal values may be shown once.

What was measured:
Mac1 of SARS-CoV-2 [1] = target: T1, Mac1 of SARS-CoV-2 (Severe acute respiratory syndrome coronavirus 2, UniProt P0DTD1); test: Fluorimetric microplate assay for Mac1 activity (α-NAD+ hydrolysis, post-reaction derivatisation); format: biochemical
Mac1 [2] = settings: cited from earlier work
Mac1 of SARS-CoV-2 [3] = target: T1, Mac1 of SARS-CoV-2; test: biochemical; settings: pIC50 (±SD) for Mac1 inhibition
Mac1 [4] = settings: cited from earlier work; remark: listed apart in the source
wildtype Mac1 [5] = target: T2, wildtype Mac1 (Severe acute respiratory syndrome coronavirus 2, UniProt P0DTD1); format: biochemical, SARS-CoV-2
[6] = target: NADase from Neurospora crassa (Neurospora crassa, UniProt Q7S936); format: biochemical
Sequence of NADase from Neurospora crassa (Q7S936 20-243 limits assumed): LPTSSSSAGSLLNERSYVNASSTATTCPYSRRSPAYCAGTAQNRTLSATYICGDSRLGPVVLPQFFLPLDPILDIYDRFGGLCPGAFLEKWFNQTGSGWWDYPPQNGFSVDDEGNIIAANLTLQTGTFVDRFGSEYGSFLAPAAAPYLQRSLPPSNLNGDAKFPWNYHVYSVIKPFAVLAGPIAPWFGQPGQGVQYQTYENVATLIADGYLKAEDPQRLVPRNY

wildtype Mac1 [7] = target: T2, wildtype Mac1; format: binding
[8] = tested on: cellular NAD+ levels in CaLu-3 cells; test: Quantification of cellular NAD+ (enzymatic cycling kit, normalised to protein); format: cell-based
human MacroD1 = human MacroD1 (Homo sapiens, UniProt Q9BQ69); format: biochemical
Sequence of human MacroD1 (Q9BQ69 whole entry): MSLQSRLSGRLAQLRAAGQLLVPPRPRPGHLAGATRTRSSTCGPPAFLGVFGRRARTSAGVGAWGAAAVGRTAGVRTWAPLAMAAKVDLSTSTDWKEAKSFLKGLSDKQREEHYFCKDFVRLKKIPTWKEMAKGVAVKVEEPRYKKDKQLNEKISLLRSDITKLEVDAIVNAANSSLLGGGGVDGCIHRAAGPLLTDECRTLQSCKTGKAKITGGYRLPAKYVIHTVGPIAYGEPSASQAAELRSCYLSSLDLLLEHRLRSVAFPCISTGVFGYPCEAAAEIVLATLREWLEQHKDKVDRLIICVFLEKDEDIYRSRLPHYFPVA

human MacroD2 = human MacroD2 (Homo sapiens, UniProt A1Z1Q3); format: biochemical
Sequence of human MacroD2 (A1Z1Q3 whole entry): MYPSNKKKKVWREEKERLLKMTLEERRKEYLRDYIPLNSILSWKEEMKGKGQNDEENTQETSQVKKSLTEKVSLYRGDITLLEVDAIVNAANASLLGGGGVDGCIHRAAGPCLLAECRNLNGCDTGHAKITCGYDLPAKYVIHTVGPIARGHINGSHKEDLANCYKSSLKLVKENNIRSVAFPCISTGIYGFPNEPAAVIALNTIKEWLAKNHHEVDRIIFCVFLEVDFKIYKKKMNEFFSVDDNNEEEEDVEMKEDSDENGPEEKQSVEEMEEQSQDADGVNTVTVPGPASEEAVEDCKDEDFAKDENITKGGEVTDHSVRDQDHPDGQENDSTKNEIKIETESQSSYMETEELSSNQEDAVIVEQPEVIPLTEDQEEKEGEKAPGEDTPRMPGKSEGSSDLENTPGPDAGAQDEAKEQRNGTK

pig liver esterase (PLE) = settings: pH 7.3
physchem = settings: pH 7.3
in vitro = settings: human, pH 7.4
[9] = pH 7.3

N#C[C@@]1(c2ccc3c(N)ncnn23)O[C@H](COP(=O)(O)O)[C@@H](O)[C@H]1O [compound 40, GS-441524-monophosphate]
IC50 (Mac1 of SARS-CoV-2 [1]): 43.7 µM

Nc1ncnc2c1ncn2[C@@H]1O[C@H](COP(=O)(O)OP(=O)(O)S)[C@@H](O)[C@H]1O (stereo partly drawn) [compound 35, adenosine-5′-O-(2-thiodiphosphate)]
IC50 (Mac1 of SARS-CoV-2 [1]): 3890 µM

Nc1ncnc2c1ncn2[C@@H]1O[C@H](COP(=O)(O)CP(=O)(O)O)[C@@H](O)[C@H]1O [compound 34, α-β methylene-ADP]
Inhibition of Mac1 (in words) (Mac1 of SARS-CoV-2 [1]): none of these compounds inhibited Mac1

Nc1ncnc2c1ncn2[C@@H]1O[C@H](COP(=O)(O)OP(=O)(O)OC2CCCC2)[C@@H](O)[C@H]1O [compound 27, β-cyclopentyl-ADP]
pIC50 (±SD) for Mac1 inhibition (Mac1 of SARS-CoV-2 [1]): 2.79

Nc1ncnc2c1ncn2[C@@H]1O[C@H](CO)[C@@H](O)[C@H]1O [compound 38, adenosine]
Inhibition of Mac1 (in words) (Mac1 of SARS-CoV-2 [1]): showed no inhibition

N#C[C@@]1(c2ccc3c(N)ncnn23)O[C@H](CO)[C@@H](O)[C@H]1O [compound 3, GS-441524]
affinity for Mac1 compared with ADPR 1 (in words) (Mac1 [2]): affinity similar to ADPR 1

Nc1nc(F)nc2c1ncn2C1OC(COP(=O)(O)OP(=O)(O)OCC2OC(O)C(O)C2O)C(O)C1O (stereo not drawn) [compound 11, 2-F-ADPR]
IC50 (Mac1 of SARS-CoV-2 [1]): 191 µM

Nc1ncnc2c1nc(-c1ccsc1)n2C1OC(COP(=O)(O)OP(=O)(O)OCC2OC(O)C(O)C2O)C(O)C1O (stereo not drawn) [compound 12, 8-thiophen-3-yl-ADPR]
IC50 (Mac1 of SARS-CoV-2 [3]): 251 µM

Nc1ncnc2c1ncn2[C@@H]1O[C@H](COP(=O)(O)OP(=O)(O)O)[C@@H](O)[C@H]1O [compound 18, ADP]
thermal stabilisation of Mac1 (in words) (Mac1 [4]): not thermally stabilised | pIC50 (±SD) for Mac1 inhibition (Mac1 of SARS-CoV-2 [1]): 2.44 and 2.3 ± 0.1

Nc1ncnc2c1ccn2C1OC(COP(=O)(O)OP(=O)(O)OCC2OC(O)C(O)C2O)C(O)C1O (stereo not drawn) [compound 22, 7-Deazaadenosine DP ribose]
IC50 (Mac1 of SARS-CoV-2 [1]): 14.5 µM

NC(=O)c1ccc[n+]([C@@H]2O[C@H](COP(=O)([O-])OP(=O)(O)OC[C@H]3O[C@@H](n4cnc5c(N)ncnc54)[C@H](O)[C@@H]3O)[C@@H](O)[C@H]2O)c1 [compound 2, β-NAD^+]
hydrolysis by Mac1 (in words) (wildtype Mac1 [5]): intact | hydrolysis by NADase (in words) [6]: hydrolyzed

Nc1ncnc2c1ncn2[C@@H]1O[C@H](COP(=O)(O)OP(=O)(O)OC[C@H]2O[C@@H](O)C(O)[C@H]2O)C(O)[C@@H]1OP(=O)(O)O (stereo partly drawn) [compound 15, ADPR-2′-phosphate]
affinity for Mac1 compared with ADPR 1 (in words) (Mac1 [2]): slightly higher affinity than ADPR 1 | TΔS (wildtype Mac1 [7]): -5.4 ± 1.2 kcal/mol | ΔH (wildtype Mac1 [7]): -11.5 ± 0.2 kcal/mol

Nc1ncnc2c1ncn2[C@@H]1O[C@H](COP(=O)(O)OP(=O)(O)O[C@H]2O[C@H](CO)[C@@H](O)[C@H](O)[C@H]2O)[C@@H](O)[C@H]1O [compound 23, ADP-glucose]
Inhibition of Mac1 (in words) (Mac1 of SARS-CoV-2 [1]): no detectable inhibition

O=C(/C=C/c1cccnc1)NCCCCC1CCN(C(=O)c2ccccc2)CC1 [FK866]
reduction of cellular NAD levels [8]: ~ 90%

Nc1ncnc2c1cc(Br)n2C1OC(COP(=O)(O)OP(=O)(O)OCC2OC(O)C(O)C2O)C(O)C1O (stereo not drawn) [compound 14, 8-Br-7-deaza-ADPR]
IC50 (Mac1 of SARS-CoV-2 [1]): 38 µM

COP(=O)(O)OP(=O)(O)OC[C@H]1O[C@@](C#N)(c2ccc3c(N)ncnn23)[C@H](O)[C@@H]1O [compound 4, β-methyl-GS-441524-DP]
time at which cellular uptake reached an equilibrium (CaLu-3 cells; human, pH 7.4): 15 min

O=c1[nH]cnc2c1ncn2C1OC(COP(=O)(O)OP(=O)(O)OCC2OC(O)C(O)C2O)C(O)C1O (stereo not drawn) [compound 10, inosine-5′-O-diphosphoribose]
Inhibition of Mac1 (in words) (Mac1 of SARS-CoV-2 [1]): did not inhibit Mac1

Nc1ncnc2c1ncn2[C@H]1C[C@H](O)[C@@H](COP(=O)(O)OP(=O)(O)OC[C@H]2OC(O)[C@H](O)[C@@H]2O)O1 (stereo partly drawn) [compound 16, 2′-deoxy-ADPR]
TΔS (wildtype Mac1 [7]): -5.9 ± 0.2 kcal/mol | ΔH (wildtype Mac1 [7]): -12.5 ± 0.2 kcal/mol

Nc1ncnc2c1nc(Br)n2C1OC(COP(=O)(O)OP(=O)(O)OCC2OC(O)C(O)C2O)C(O)C1O (stereo not drawn) [compound 13, 8-Br-ADPR]
Inhibition of human MacroD1 (in words) (human MacroD1): low micromolar range | Inhibition of human MacroD2 (in words) (human MacroD2): low micromolar range

Nc1ncnc2c1ncn2[C@@H]1O[C@H](COP(=O)(O)O)[C@@H](O)[C@H]1O [compound 39, AMP]
Inhibition of Mac1 (in words) (Mac1 of SARS-CoV-2 [1]): showed no inhibition

CCCCCCCCCCCC(=O)Oc1ccc(COP(=O)(OC)OP(=O)(O)OC[C@H]2O[C@@](C#N)(c3ccc4c(N)ncnn34)[C@H](O)[C@@H]2O)cc1 (stereo partly drawn) [compound 5, C11-AB-β-methyl-GS-441524-DP]
hydrolysis with pig liver esterase (in words) (pig liver esterase (PLE)): successful | half-life (physchem): 61 h | CC50 (in vitro): > 50 µM | time at which incipient decomposition to GS-441524-MP 40 was discovered [9]: 30 s | decrease of β-NAD+ 2 levels (CaLu-3 cells): 62% | GS-441524-MP 40 formed, share of the total of detectable 40 and deprotected compound (CaLu-3 cells; human, pH 7.4): 24% | intracellular concentration (CaLu-3 cells; human, pH 7.4): 0.3 to 0.4 µM
